Laboratory results from US11279681B2, “3-alkyl bicyclic [4,5,0] hydroxamic acids as HDAC inhibitors” (Valo Health, Inc., priority 2015, dated 2022).

Molecular target: T1, HDAC6 (Homo sapiens, UniProt Q9UBN7)
T1 sequence (Q9UBN7 1-1215): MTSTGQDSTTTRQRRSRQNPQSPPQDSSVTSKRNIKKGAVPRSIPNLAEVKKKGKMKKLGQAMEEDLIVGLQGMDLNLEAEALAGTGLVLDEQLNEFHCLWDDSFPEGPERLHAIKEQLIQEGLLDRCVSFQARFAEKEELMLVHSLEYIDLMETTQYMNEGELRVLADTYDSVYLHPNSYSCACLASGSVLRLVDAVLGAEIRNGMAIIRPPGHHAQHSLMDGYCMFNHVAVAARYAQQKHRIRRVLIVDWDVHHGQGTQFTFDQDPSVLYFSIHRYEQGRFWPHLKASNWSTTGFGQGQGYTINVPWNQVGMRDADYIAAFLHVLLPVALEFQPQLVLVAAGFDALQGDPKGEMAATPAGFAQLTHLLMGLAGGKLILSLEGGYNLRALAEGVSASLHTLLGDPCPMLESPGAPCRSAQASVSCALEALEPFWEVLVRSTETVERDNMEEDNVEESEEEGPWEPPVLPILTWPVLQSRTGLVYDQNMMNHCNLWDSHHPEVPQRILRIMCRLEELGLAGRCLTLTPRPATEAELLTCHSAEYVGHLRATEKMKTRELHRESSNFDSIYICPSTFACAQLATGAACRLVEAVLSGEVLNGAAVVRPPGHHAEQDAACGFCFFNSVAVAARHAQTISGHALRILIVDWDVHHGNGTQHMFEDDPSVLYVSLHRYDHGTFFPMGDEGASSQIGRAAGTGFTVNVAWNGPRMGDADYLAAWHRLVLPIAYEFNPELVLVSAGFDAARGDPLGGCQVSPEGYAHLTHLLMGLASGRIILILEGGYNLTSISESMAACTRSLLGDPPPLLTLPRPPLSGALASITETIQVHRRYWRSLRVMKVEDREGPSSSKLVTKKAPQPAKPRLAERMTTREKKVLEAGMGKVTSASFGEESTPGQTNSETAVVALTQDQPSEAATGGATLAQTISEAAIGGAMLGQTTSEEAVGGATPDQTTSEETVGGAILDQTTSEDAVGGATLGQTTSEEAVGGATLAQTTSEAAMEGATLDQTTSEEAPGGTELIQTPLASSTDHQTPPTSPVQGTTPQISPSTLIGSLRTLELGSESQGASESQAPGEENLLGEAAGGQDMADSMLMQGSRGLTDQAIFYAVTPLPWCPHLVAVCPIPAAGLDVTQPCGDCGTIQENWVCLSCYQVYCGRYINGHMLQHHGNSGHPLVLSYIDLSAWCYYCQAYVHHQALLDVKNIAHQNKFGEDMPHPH
Experiment: In vitro histone deacetylase assay: enzymatic HDAC6 electrophoretic mobility shift assay
Format: biochemical
Conditions: full length human recombinant HDAC6, 1 nM enzyme, 2 μM peptide substrate RHKK(Ac)-NH2, 25° C.; read-out: Inhibitory Concentration (IC50) Values for Representative Compounds against HDAC6, Activity Range

## C[C@H]1COc2cc(C(=O)NO)ccc2CN1c1ccc(F)cc1 [(S)-4-(4-fluorophenyl)-N-hydroxy-3-methyl-2,3,4,5-tetrahydrobenzo[f][1,4]oxazepine-8-carboxamide]
  IC50: ≤ 100 nM

## C[C@H]1COc2cc(C(=O)NO)ccc2CN1C(=O)N1C[C@H]2CC[C@H](C1)O2 [(S)-4-((1R,5R)-8-oxa-3-azabicyclo[3.2.1]octane-3-carbonyl)-N-hydroxy-3-methyl-2,3,4,5-tetrahydrobenzo[f][1,4]oxazepine-8-carboxamide]
  IC50: ≤ 100 nM

## C[C@H]1COc2cc(C(=O)NO)ccc2CN1C(=O)N1C[C@@H]2CC[C@@H](C1)O2 [(S)-4-((1S,5S)-8-oxa-3-azabicyclo[3.2.1]octane-3-carbonyl)-N-hydroxy-3-methyl-2,3,4,5-tetrahydrobenzo[f][1,4]oxazepine-8-carboxamide]
  IC50: ≤ 100 nM

## C[C@H]1COc2cc(C(=O)NO)ccc2CN1S(=O)(=O)c1ccc(F)cc1 [(S)-4-((4-fluorophenyl)sulfonyl)-N-hydroxy-3-methyl-2,3,4,5-tetrahydrobenzo[f][1,4]oxazepine-8-carboxamide]
  IC50: 100 to 500 nM

## C[C@H]1COc2cc(C(=O)NO)ccc2CN1C(=O)N1CCC1 [(S)-4-(azetidine-1-carbonyl)-N-hydroxy-3-methyl-2,3,4,5-tetrahydrobenzo[f][1,4]oxazepine-8-carboxamide]
  IC50: ≤ 100 nM

## C[C@H]1COc2cc(C(=O)NO)ccc2CN1CC1CCC1 [(S)-4-(cyclobutylmethyl)-N-hydroxy-3-methyl-2,3,4,5-tetrahydrobenzo[f][1,4]oxazepine-8-carboxamide]
  IC50: ≤ 100 nM

## C[C@H]1COc2cc(C(=O)NO)ccc2CN1CC1CCCCC1 [(S)-4-(cyclohexylmethyl)-N-hydroxy-3-methyl-2,3,4,5-tetrahydrobenzo[f][1,4]oxazepine-8-carboxamide]
  IC50: ≤ 100 nM

## C[C@H]1COc2cc(C(=O)NO)ccc2CN1CC1CCCC1 [(S)-4-(cyclopentylmethyl)-N-hydroxy-3-methyl-2,3,4,5-tetrahydrobenzo[f][1,4]oxazepine-8-carboxamide]
  IC50: ≤ 100 nM

## C[C@H]1COc2cc(C(=O)NO)ccc2CN1CC1CC1 [(S)-4-(cyclopropylmethyl)-N-hydroxy-3-methyl-2,3,4,5-tetrahydrobenzo[f][1,4]oxazepine-8-carboxamide]
  IC50: ≤ 100 nM

## CCS(=O)(=O)N1Cc2ccc(C(=O)NO)cc2OC[C@@H]1C [(S)-4-(ethylsulfonyl)-N-hydroxy-3-methyl-2,3,4,5-tetrahydrobenzo[f][1,4]oxazepine-8-carboxamide]
  IC50: ≤ 100 nM

## C[C@H]1COc2cc(C(=O)NO)ccc2CN1C1CCCC1 [(S)-4-cyclopentyl-N-hydroxy-3-methyl-2,3,4,5-tetrahydrobenzo[f][1,4]oxazepine-8-carboxamide]
  IC50: 100 to 500 nM

## CCN1Cc2ccc(C(=O)NO)cc2OC[C@@H]1C [(S)-4-ethyl-N-hydroxy-3-methyl-2,3,4,5-tetrahydrobenzo[f][1,4]oxazepine-8-carboxamide]
  IC50: 100 to 500 nM

## C[C@H]1COc2cc(C(=O)NO)ccc2CN1C(=O)NC1CCCCC1 [(S)-N4-cyclohexyl-N8-hydroxy-3-methyl-2,3-dihydrobenzo[f][1,4]oxazepine-4,8(5H)-dicarboxamide]
  IC50: ≤ 100 nM

## COC[C@@H]1CN(C(=O)Nc2ccc(OC)cc2)Cc2ccc(C(=O)NO)cc2O1 [(S)-N8-hydroxy-2-(methoxymethyl)-N4-(4-methoxyphenyl)-2,3-dihydrobenzo[f][1,4]oxazepine-4,8(5H)-dicarboxamide]
  IC50: 100 to 500 nM

## C[C@H]1COc2cc(C(=O)NO)ccc2CN1C(=O)Nc1ccccn1 [(S)-N8-hydroxy-3-methyl-N4-(pyridin-2-yl)-2,3-dihydrobenzo[f][1,4]oxazepine-4,8(5H)-dicarboxamide]
  IC50: ≤ 100 nM

## C[C@H]1COc2cc(C(=O)NO)ccc2CN1C(=O)Nc1cccnc1 [(S)-N8-hydroxy-3-methyl-N4-(pyridin-3-yl)-2,3-dihydrobenzo[f][1,4]oxazepine-4,8(5H)-dicarboxamide]
  IC50: ≤ 100 nM

## C[C@H]1COc2cc(C(=O)NO)ccc2CN1C(=O)Nc1ccncc1 [(S)-N8-hydroxy-3-methyl-N4-(pyridin-4-yl)-2,3-dihydrobenzo[f][1,4]oxazepine-4,8(5H)-dicarboxamide]
  IC50: ≤ 100 nM

## C[C@H]1COc2cc(C(=O)NO)ccc2CN1C(=O)NC1CCOCC1 [(S)-N8-hydroxy-3-methyl-N4-(tetrahydro-2H-pyran-4-yl)-2,3-dihydrobenzo[f][1,4]oxazepine-4,8(5H)-dicarboxamide]
  IC50: ≤ 100 nM

## C[C@H]1COc2cc(C(=O)NO)ccc2CN1C(=O)Nc1ccccc1 [(S)-N8-hydroxy-3-methyl-N4-phenyl-2,3-dihydrobenzo[f][1,4]oxazepine-4,8(5H)-dicarboxamide]
  IC50: ≤ 100 nM

## C[C@H]1COc2cc(C(=O)NO)ccc2CN1C(=O)N(C)C1CCOCC1 [(S)-N8-hydroxy-N4,3-dimethyl-N4-(tetrahydro-2H-pyran-4-yl)-2,3-dihydrobenzo[f][1,4]oxazepine-4,8(5H)-dicarboxamide]
  IC50: ≤ 100 nM

## C[C@H]1COc2cc(C(=O)NO)ccc2CN1C(=O)N(C)c1ccccc1 [(S)-N8-hydroxy-N4,3-dimethyl-N4-phenyl-2,3-dihydrobenzo[f][1,4]oxazepine-4,8(5H)-dicarboxamide]
  IC50: 100 to 500 nM

## C[C@H]1COc2cc(C(=O)NO)ccc2CN1C(=O)N(C)C [(S)-N8-hydroxy-N4,N4,3-trimethyl-2,3-dihydrobenzo[f][1,4]oxazepine-4,8(5H)-dicarboxamide]
  IC50: ≤ 100 nM

## COCCNC(=O)N1Cc2ccc(C(=O)NO)cc2OC[C@@H]1C [(S)-N8-hydroxy-N4-(2-methoxyethyl)-3-methyl-2,3-dihydrobenzo[f][1,4]oxazepine-4,8(5H)-dicarboxamide]
  IC50: ≤ 100 nM

## COc1ccc(NC(=O)N2Cc3ccc(C(=O)NO)cc3O[C@@H](c3ccccc3)C2)cc1 [(S)-N8-hydroxy-N4-(4-methoxyphenyl)-2-phenyl-2,3-dihydrobenzo[f][1,4]oxazepine-4,8(5H)-dicarboxamide]
  IC50: ≤ 100 nM

## COC[C@H]1COc2cc(C(=O)NO)ccc2CN1c1ccccc1C [(S)-N-hydroxy-3-(methoxymethyl)-4-(o-tolyl)-2,3,4,5-tetrahydrobenzo[f][1,4]oxazepine-8-carboxamide]
  IC50: ≤ 100 nM

## COC[C@H]1COc2cc(C(=O)NO)ccc2CN1C [(S)-N-hydroxy-3-(methoxymethyl)-4-methyl-2,3,4,5-tetrahydrobenzo[f][1,4]oxazepine-8-carboxamide]
  IC50: ≤ 100 nM

## COC[C@H]1COc2cc(C(=O)NO)ccc2CN1c1ccccc1 [(S)-N-hydroxy-3-(methoxymethyl)-4-phenyl-2,3,4,5-tetrahydrobenzo[f][1,4]oxazepine-8-carboxamide]
  IC50: ≤ 100 nM

## CC(C)[C@H]1COc2cc(C(=O)NO)ccc2CN1c1ccccn1 [(S)-N-hydroxy-3-isopropyl-4-(pyridin-2-yl)-2,3,4,5-tetrahydrobenzo[f][1,4]oxazepine-8-carboxamide]
  IC50: ≤ 100 nM

## CC(C)[C@H]1COc2cc(C(=O)NO)ccc2CN1c1cccnc1 [(S)-N-hydroxy-3-isopropyl-4-(pyridin-3-yl)-2,3,4,5-tetrahydrobenzo[f][1,4]oxazepine-8-carboxamide]
  IC50: ≤ 100 nM

## CC(C)[C@H]1COc2cc(C(=O)NO)ccc2CN1c1ccncc1 [(S)-N-hydroxy-3-isopropyl-4-(pyridin-4-yl)-2,3,4,5-tetrahydrobenzo[f][1,4]oxazepine-8-carboxamide]
  IC50: > 500 nM

## C[C@H]1COc2cc(C(=O)NO)ccc2CN1CCN1CCOCC1 [(S)-N-hydroxy-3-methyl-4-(2-morpholinoethyl)-2,3,4,5-tetrahydrobenzo[f][1,4]oxazepine-8-carboxamide]
  IC50: 100 to 500 nM

## C[C@H]1COc2cc(C(=O)NO)ccc2CN1c1cccc(C(F)(F)F)c1 [(S)-N-hydroxy-3-methyl-4-(3-(trifluoromethyl)phenyl)-2,3,4,5-tetrahydrobenzo[f][1,4]oxazepine-8-carboxamide]
  IC50: 100 to 500 nM

## C[C@H]1COc2cc(C(=O)NO)ccc2CN1CCCN1CCOCC1 [(S)-N-hydroxy-3-methyl-4-(3-morpholinopropyl)-2,3,4,5-tetrahydrobenzo[f][1,4]oxazepine-8-carboxamide]
  IC50: 100 to 500 nM

## C[C@H]1COc2cc(C(=O)NO)ccc2CN1c1ccc(OC(F)(F)F)cc1 [(S)-N-hydroxy-3-methyl-4-(4-(trifluoromethoxy)phenyl)-2,3,4,5-tetrahydrobenzo[f][1,4]oxazepine-8-carboxamide]
  IC50: 100 to 500 nM
